Source: patent US7892780B2, “Method for screening antioxidant using mutant bacteria and chlorophyllide, and antioxidant screened by the method” (Industry-University Cooperation Foundation Sogang University, priority 2007, dated 2011)

System: Rhodobacter sphaeroides 2.4.1 SodB1 [KCTC 11069BP]
Assay: Antioxidant screening by growth of SodB1 mutant bacteria on chlorophyllide-added medium blocks or filter discs
Format: cell-based
Conditions: sample dissolved in ethanol or dimethylsulfoxide, FIG. 5
Experimental: Next, an antioxidant sample and SodB1 mutant bacteria were added to these medium blocks, or otherwise chlorophyllide (0.1 to 100 mM) was added directly to filter discs to which a desired concentration of an antioxidant candidate material was then added. Thereafter, multimeric protein-expressing SodB1 mutant bacteria, i.e. Rhodobacter sphaeroides 2.4.1 SodB1 [KCTC 11069BP], were plated on a Sistrom's minimal medium [20 mM potassium dihydrogen phosphate (KH2PO4), 3.8 mM ammonium sulfate ((NH4)2SO4), 34 mM succinic acid, 0.59 mM L-glutamic acid, 0.30 mM L-aspartic acid, 8.5 mM sodium chloride, 1.05 mM nitrilotriacetic acid, 1.2 mM magnesium chloride (MgCl2.6H2O), 0.23 mM calcium chloride (CaCl2.7H2O), 25 μM ferrous sulfate (FeSO4.7H2O), 0.16 μM ammonium molybdate ((NH4)6Mo7O24.4H2O), 4.7 μM EDTA, 38 μM zinc sulfate (ZnSO4.7H2O), 9.1 μM manganese sulfate (MnSO4.H2O), 1.6 μM copper sulfate (CuSO4.5H2O), 0.85 μM cobalt (II) nitrate (Co(NO3)2.6H2O), 1.8 μM boric acid (H3BO3), 8.1 μM nicotinic acid, 1.5 μM thiamine hydrochloride, and 41 nM biotin] (Sistrom, W. R, 1962. J. Gen. Microbiol. 28: 607-616).
As a result, when there was an antioxidant activity in the antioxidant candidate material to be screened, cells grew only on the medium blocks or around filter discs and thus red bacteria were observed. […]

Compound	cell growth of SodB1 mutant bacteria / prevention of cell death (antioxidant activity)
tocopherol	partial cell growth
O=c1c(O)c(-c2ccc(O)c(O)c2)oc2cc(O)cc(O)c12 [quercetin]	partial cell growth
